Results from patent US8904703B2, “Herbicide method and apparatus” (priority 2011, dated 2014).

Columns and labels:
surrounding plant life = experiment: Field trials: effect of the Kudzu vine treatment on surrounding plant life; assay type: in vivo; settings: observed through growth of new grass and new leaf growth
Source text: (§1) In operation, the chuck on a battery powered drill (not shown in the drawing) connects the drill to the drill shank 23. The tube 10 is placed near a Kudzu vine stem as that stem protrudes above the earth with the longitudinal tube axis 17 of the tube 10 generally perpendicular to the surface of earth 35 to press drill bit 11 against the soil. Preferably a 1.6 cm diameter black oxide coated drill bit is suitable for this purpose.
(§2) The drill is energized and the torque applied by the drill turns the tube 10 and the drill bit 11, causing the drill bit 11 and the balance of the tube 10 to bore into the earth. The drilling is continued until all of the perforations in the two perforation sets 12A and 22A are well below the surface of the earth, whereupon the drill is deactivated and disconnected from the shank 23.
(§3) A first of the two helium canisters 33 is then coupled through the flexible conduit 32 and the gas adapter 31 to the valve 28. Valve handle 34 is shifted to a valve open position and helium gas flows from the canister 33, through the valve 28 and into the hollow center 24 (FIG. 2) of the tube 10.
(§4) Once in the tube 10, under the gas pressure supplied by the helium canister 33, the helium gas disperses into soil 36 surrounding the tube 10 through the perforations in the sets 12A and 22A and migrates in the soil 36 to Kudzu vine root 37. […]

[1] = system: Kudzu vines (pueraria lobata); experiment: Field trials of helium gas applied to Kudzu vine root systems through a perforated tube; assay type: in vivo
Source text: With respect to the helium canister 33, two canisters, each having 0.25 cubic meters of helium gas under a pressure (when full) of at least 260 pounds per square inch (PSI), for a total of 0.5 cubic meters at standard atmospheric pressure and temperature provide a suitable herbicidal effect when the canister 33 (only one of which canisters is shown in the drawing) are applied in sequence in accordance with the invention. […] Naturally, for Kudzu eradication over larger areas, large helium tanks also have been used with great success.
as §1, §2, §3
as §4, with “37. Upon depletion of the helium in the canister 33, the valve handle 34 is shifted to close the valve 28.” for “37.”

[He] [helium]
Effect of Kudzu vine treatment on surrounding plant life (surrounding plant life): surprisingly beneficial | Kudzu vine herbicidal result ([1]; Balloon Time helium canisters, helium purity 94% to 96%, two canisters of 0.25 cubic meters applied in sequence): produced the desired Kudzu vine herbicidal result | Kudzu destroyed (estimated) ([1]; four weeks after exposure to helium, third test site): ~95% | Kudzu vines destroyed ([1]; four weeks after exposure to helium, two test sites, about 0.5 cubic meters helium into soil near roots): all of the Kudzu vines so treated were destroyed
